In the test the test system is NL-RLuc virus. Briefly: Inhibition of HIV replication (NL-RLuc luciferase reporter virus in MT-2 cells). Format: cell-based. The text has this:
Inhibition of HIV replication: A recombinant NL-RLuc proviral clone was constructed in which a section of the nef gene form NL4-3 was replaced with the Renilla Luciferase gene. This virus is fully infectious and can undergo multiple cycles of replication in cell culture. In addition, the luciferous reporter provides a simple and easy method for quantitating the extent of virus growth and consequently, the antiviral activity of test compounds. The plasmid pNLRLuc contains the proviral NL-Rluc DNA cloned into pUC18 at the PvuII site. The NL-RLuc virus was prepared by transfection of 293T cells with the plasmid pNLRLuc. Transfections were performed using the LipofectAMINE PLUS kit form Invitrogen (Carlsbad, Calif.) according to the manufacturer and the virus generated was titered in MT-2 cells. For susceptibility analyses, the titrated virus was used to infect MT-2 cells in the presence of compound, and after 5 days of incubation, cells were processed and quantitated for virus growth by the amount of expressed luciferase. Assay media was RPMI 1640 supplemented with 10% heat inactivated fetal bovine serum (FBS), 100 units/ml penicillin G/100 units/ml streptomycin, 10 mM HEPES buffer pH 7.55 and 2 mM L-glutamine. The results form at least 2 experiments were used to calculate the EC50 values. Luciferase was quantitated using the Dual Luciferase kit form Promega (Madison, Wis.). Susceptibility of viruses to compounds was determined by incubation in the presence of serial dilutions of the compound. The 50% effective concentration (EC50) was calculated by using the exponential form of the median effect equation where (Fa)=1/[1+(ED50/drug conc.)^m](Johnson V A, Byington R T. Infectivity Assay. In Techniques in HIV Research. ed. Aldovini A, Walker B D. 71-76. New York: Stockton Press. 1990). Activity equal to A refers to a compound having an EC50≤100 nM, while B and C denote compounds having an EC50 between 100 nM and 1 uM (B) or >1 uM (C).
For orientation: Reporter assays use an easily measured gene product as a stand-in for the process of interest.

Where [1] appears, read: Human immunodeficiency virus 1, MT2, 120 h, read-out: Activity.
The mark [2] stands for this setting: read-out: Activity, NL-RLuc virus in MT-2 cells, 5 days of incubation, luciferase readout.
The mark [3] stands for this setting: Human immunodeficiency virus 1, MT2, 120 h, read-out: EC50 μM.

Where two headings read alike, the source gives them in different places. Where only a bound is given, the exact number is not on record here.

Turning to `Cc1nc(O)c(-c2ccc(OCCc3ccc(F)cc3)cc2)c(N2CCC(C)(C)CC2)c1[C@H](OC(C)(C)C)C(=O)O` (single isomer, unassigned) [Example 50], under setting [1], the EC50 is < 0.1 µM.

Turning to `COc1nc(C)c([C@H](OC(C)(C)C)C(=O)O)c(N2CCC(C)(C)CC2)c1-c1ccc(OCCc2ccc(F)cc2)cc1` (single isomer, unassigned) [Example 51], the EC50 under setting [1] was < 0.1 µM.

As to `Cc1nc(Cl)c(-c2ccc(OCCc3ccc(F)cc3)cc2)c(N2CCC(C)(C)CC2)c1[C@H](OC(C)(C)C)C(=O)O` (single isomer, unassigned) [Example 52], the EC50 under setting [1] was < 0.1 µM.

As for `Cc1cc(F)ccc1CN1CCc2cc(-c3c(C(C)N(C)CC4CCOCC4)nc(C)c([C@H](OC(C)(C)C)C(=O)O)c3N3CCC(C)(C)CC3)ccc2C1` (single isomer, unassigned) [Example 150], under setting [1], the EC50 was < 0.1 µM.

As to `Cc1cc(F)ccc1CN1CCc2cc(-c3c(C(C)N(C)CC4CCOCC4)nc(C)c([C@H](OC(C)(C)C)C(=O)O)c3N3CCC(C)(C)CC3)ccc2C1` (single isomer, unassigned) [Example 151], the EC50 under setting [2] is < 0.1 µM.

On to `Cc1cc(F)ccc1CN1CCc2cc(-c3c(C(C)O)nc(C)c([C@H](OC(C)(C)C)C(=O)O)c3N3CCC(C)(C)CC3)ccc2C1` (single isomer, unassigned) [Example 152], for which the EC50 under setting [1] is < 0.1 µM.

Take `Cc1cc(F)ccc1CN1CCc2cc(-c3c(C(C)O)nc(C)c([C@H](OC(C)(C)C)C(=O)O)c3N3CCC(C)(C)CC3)ccc2C1` (single isomer, unassigned) [Example 153]: under setting [2], the EC50 is < 0.1 µM.

Consider `Cc1nc(CO)c([C@H](OC(C)(C)C)C(=O)O)c(N2CCC(C)(C)CC2)c1-c1ccc(OCCc2ccc(F)cc2)cc1` [Example 1, (S)-2-(tert-Butoxy)-2-(4-(4,4-dimethylpiperidin-1-yl)-5-(4-(4-fluorophenethoxy)phenyl)-2-(hydroxymethyl)-6-methylpyridin-3-yl)acetic acid], for which the EC50 runs as follows: under setting [1], < 0.1 µM; under setting [3], 0.003 µM.

`Cc1nc(CO)c(-c2ccc(OCCc3ccc(F)cc3)cc2)c(N2CCC(C)(C)CC2)c1[C@H](OC(C)(C)C)C(=O)O` [Example 2, (S)-2-(tert-Butoxy)-2-(4-(4,4-dimethylpiperidin-1-yl)-5-(4-(4-fluorophenethoxy)phenyl)-6-(hydroxymethyl)-2-methylpyridin-3-yl)acetic acid]: under setting [1], the EC50 was < 0.1 µM.

Take `COCc1nc(C)c([C@H](OC(C)(C)C)C(=O)O)c(N2CCC(C)(C)CC2)c1-c1ccc(OCCc2ccc(F)cc2)cc1` [Example 3, (S)-2-(tert-Butoxy)-2-(4-(4,4-dimethylpiperidin-1-yl)-5-(4-(4-fluorophenethoxy)phenyl)-6-(methoxymethyl)-2-methylpyridin-3-yl)acetic acid]: under setting [1], the EC50 is < 0.1 µM.

As to `Cc1nc(C(F)F)c(-c2ccc(OCCc3ccc(F)cc3)cc2)c(N2CCC(C)(C)CC2)c1[C@H](OC(C)(C)C)C(=O)O` [Example 4, (S)-2-(tert-Butoxy)-2-(6-(difluoromethyl)-4-(4,4-dimethylpiperidin-1-yl)-5-(4-(4-fluorophenethoxy)phenyl)-2-methylpyridin-3-yl)acetic acid], the EC50 under setting [1] is < 0.1 µM.

Take `Cc1nc(CF)c(-c2ccc(OCCc3ccc(F)cc3)cc2)c(N2CCC(C)(C)CC2)c1[C@H](OC(C)(C)C)C(=O)O` [Example 5, (S)-2-(tert-Butoxy)-2-(4-(4,4-dimethylpiperidin-1-yl)-6-(fluoromethyl)-5-(4-(4-fluorophenethoxy)phenyl)-2-methylpyridin-3-yl)acetic acid]: the EC50 under setting [1] was < 0.1 µM.

As for `Cc1nc(COc2ccc(Cl)cc2)c(-c2ccc(OCCc3ccc(F)cc3)cc2)c(N2CCC(C)(C)CC2)c1[C@H](OC(C)(C)C)C(=O)O` [Example 6, (S)-2-(tert-butoxy)-2-(6-((4-chlorophenoxy)methyl)-4-(4,4-dimethylpiperidin-1-yl)-5-(4-(4-fluorophenethoxy)phenyl)-2-methylpyridin-3-yl)acetic acid], the EC50 was < 0.1 µM under setting [1] and 0.02 µM under setting [3].

With `Cc1nc(COCC2COC2)c(-c2ccc(OCCc3ccc(F)cc3)cc2)c(N2CCC(C)(C)CC2)c1[C@H](OC(C)(C)C)C(=O)O` [Example 7, (S)-2-(tert-Butoxy)-2-(4-(4,4-dimethylpiperidin-1-yl)-5-(4-(4-fluorophenethoxy)phenyl)-2-methyl-6-((oxetan-3-ylmethoxy)methyl)pyridin-3-yl)acetic acid], the EC50 under setting [1] is < 0.1 µM.

For the molecule `CCOCc1nc(C)c([C@H](OC(C)(C)C)C(=O)O)c(N2CCC(C)(C)CC2)c1-c1ccc(OCCc2ccc(F)cc2)cc1` [Example 8, (S)-2-(tert-Butoxy)-2-(4-(4,4-dimethylpiperidin-1-yl)-6-(ethoxymethyl)-5-(4-(4-fluorophenethoxy)phenyl)-2-methylpyridin-3-yl)acetic acid], the EC50 under setting [1] is < 0.1 µM.

For the molecule `Cc1nc(COC(C)C)c(-c2ccc(OCCc3ccc(F)cc3)cc2)c(N2CCC(C)(C)CC2)c1[C@H](OC(C)(C)C)C(=O)O` [Example 9, (S)-2-(tert-Butoxy)-2-(4-(4,4-dimethylpiperidin-1-yl)-5-(4-(4-fluorophenethoxy)phenyl)-6-(isopropoxymethyl)-2-methylpyridin-3-yl)acetic acid], under setting [1], the EC50 was < 0.1 µM.

Turning to `CCOCCOCc1nc(C)c([C@H](OC(C)(C)C)C(=O)O)c(N2CCC(C)(C)CC2)c1-c1ccc(OCCc2ccc(F)cc2)cc1` [Example 10, (S)-2-(tert-Butoxy)-2-(4-(4,4-dimethylpiperidin-1-yl)-6-((2-ethoxyethoxy)methyl)-5-(4-(4-fluorophenethoxy)phenyl)-2-methylpyridin-3-yl)acetic acid], the EC50 under setting [1] is < 0.1 µM.

`Cc1nc(COC2CCCC2)c(-c2ccc(OCCc3ccc(F)cc3)cc2)c(N2CCC(C)(C)CC2)c1[C@H](OC(C)(C)C)C(=O)O` [Example 11, (S)-2-(tert-Butoxy)-2-(6-((cyclopentyloxy)methyl)-4-(4,4-dimethylpiperidin-1-yl)-5-(4-(4-fluorophenethoxy)phenyl)-2-methylpyridin-3-yl)acetic acid]: the EC50 under setting [1] is < 0.1 µM.

For `Cc1nc(COC2CCOCC2)c(-c2ccc(OCCc3ccc(F)cc3)cc2)c(N2CCC(C)(C)CC2)c1[C@H](OC(C)(C)C)C(=O)O` [Example 12, (S)-2-(tert-Butoxy)-2-(4-(4,4-dimethylpiperidin-1-yl)-5-(4-(4-fluorophenethoxy)phenyl)-2-methyl-6-(((tetrahydro-2H-pyran-4-yl)oxy)methyl)pyridin-3-yl)acetic acid], the EC50 under setting [1] is < 0.1 µM.

With `Cc1nc(COCC2CCCC2)c(-c2ccc(OCCc3ccc(F)cc3)cc2)c(N2CCC(C)(C)CC2)c1[C@H](OC(C)(C)C)C(=O)O` [Example 13, (S)-2-(tert-Butoxy)-2-(6-((cyclopentylmethoxy)methyl)-4-(4,4-dimethylpiperidin-1-yl)-5-(4-(4-fluorophenethoxy)phenyl)-2-methylpyridin-3-yl)acetic acid], the EC50 under setting [1] is < 0.1 µM.

For the molecule `Cc1nc(COCc2ncco2)c(-c2ccc(OCCc3ccc(F)cc3)cc2)c(N2CCC(C)(C)CC2)c1[C@H](OC(C)(C)C)C(=O)O` [Example 14, (S)-2-(tert-Butoxy)-2-(4-(4,4-dimethylpiperidin-1-yl)-5-(4-(4-fluorophenethoxy)phenyl)-2-methyl-6-((oxazol-2-ylmethoxy)methyl)pyridin-3-yl)acetic acid], the EC50 under setting [1] was < 0.1 µM.

Turning to `Cc1nc(COc2cccc(Cl)c2)c(-c2ccc(OCCc3ccc(F)cc3)cc2)c(N2CCC(C)(C)CC2)c1[C@H](OC(C)(C)C)C(=O)O` [Example 15, (S)-2-(tert-Butoxy)-2-(6-((3-chlorophenoxy)methyl)-4-(4,4-dimethylpiperidin-1-yl)-5-(4-(4-fluorophenethoxy)phenyl)-2-methylpyridin-3-yl)acetic acid], the EC50 was < 0.1 µM under setting [1] and 0.051 µM under setting [3].

On to `Cc1nc(COCc2cccc(Cl)c2)c(-c2ccc(OCCc3ccc(F)cc3)cc2)c(N2CCC(C)(C)CC2)c1[C@H](OC(C)(C)C)C(=O)O` [Example 16, (S)-2-(tert-Butoxy)-2-(6-(((3-chlorobenzyl)oxy)methyl)-4-(4,4-dimethylpiperidin-1-yl)-5-(4-(4-fluorophenethoxy)phenyl)-2-methylpyridin-3-yl)acetic acid], for which the EC50 under setting [1] was < 0.1 µM.

Turning to `CSCc1nc(C)c([C@H](OC(C)(C)C)C(=O)O)c(N2CCC(C)(C)CC2)c1-c1ccc(OCCc2ccc(F)cc2)cc1` [Example 17, (S)-2-(tert-Butoxy)-2-(4-(4,4-dimethylpiperidin-1-yl)-5-(4-(4-fluorophenethoxy)phenyl)-2-methyl-6-((methylthio)methyl)pyridin-3-yl)acetic acid], the EC50 under setting [1] was < 0.1 µM.

For the origin of these results see patent publication US10351546B2, “Pyridin-3-yl acetic acid derivatives as inhibitors of human immunodeficiency virus replication” (priority 2015, dated 2019).
